Laboratory results as given in patent US20070249620A1, “Urea Derivative” (priority 2004, published 2007).

Experiments:
mouse DGAT1 = biological target: T1, mouse DGAT1 (Mus musculus, UniProt Q9Z2A7); test: DGAT1 inhibitory effect test (microsome fraction, [14C]-oleoyl-CoA, triglyceride radioactivity by TLC); format: biochemical; details: 0.5 h; concentration of the test compound 0.1 μg/ml; mouse DGAT1 microsomes, 23° C., 30 minutes; read-out: Inhibitory ratio
T1 construct: made in house; host or cells: insect cells (High Five, Sf9, Sf21, etc.), baculovirus expression system (Invitrogen)
T1 sequence (Q9Z2A7 1-498): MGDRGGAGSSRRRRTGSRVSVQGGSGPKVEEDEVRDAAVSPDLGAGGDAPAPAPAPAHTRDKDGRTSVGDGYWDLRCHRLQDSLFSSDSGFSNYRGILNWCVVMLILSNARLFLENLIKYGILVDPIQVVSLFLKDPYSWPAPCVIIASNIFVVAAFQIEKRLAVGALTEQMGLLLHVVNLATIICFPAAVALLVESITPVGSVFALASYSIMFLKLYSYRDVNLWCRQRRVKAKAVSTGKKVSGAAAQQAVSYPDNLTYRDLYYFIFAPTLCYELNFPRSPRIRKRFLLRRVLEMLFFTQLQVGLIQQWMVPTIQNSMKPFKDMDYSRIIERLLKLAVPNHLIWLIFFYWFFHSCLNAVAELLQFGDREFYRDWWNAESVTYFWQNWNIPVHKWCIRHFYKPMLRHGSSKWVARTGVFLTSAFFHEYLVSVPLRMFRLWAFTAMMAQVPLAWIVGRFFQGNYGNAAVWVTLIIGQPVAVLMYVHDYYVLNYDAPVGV
Outline: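 Baculovirus-expressed mouse DGAT1 insect-cell microsomes (10 μg) were incubated 30 min at 23 °C, pH 8.0, with 0.5 mM 1,2-dioleoyl-sn-glycerol, 30 μM [14C]-oleoyl-CoA and 0.5% Triton X-100. [14C]-triglyceride was quantified after heptane extraction and TLC. Percent inhibition was taken against vehicle control, with 0-min background subtracted.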

inhibition at 0.1 µg/mL (mouse DGAT1) [%] | melting point [°C] | Compound
≥ 50 | 204 to 205 | COc1cc(NC(=O)Nc2ccc(N3CCN(C(=O)Nc4ncc(F)cc4F)CC3)cc2)cc(OC)c1 [Example 341, 4-{4-[3-(3,5-dimethoxy-phenyl)-ureido]-phenyl}-piperazine-1-carboxylic acid (3,5-difluoro-pyridin-2-yl)-amide]
≥ 50 | 127 to 128 | O=C(Nc1ccc(N2CCN(C(=O)C(O)c3ccccc3Cl)CC2)nc1)Nc1ccccc1F (centres unmarked) [Example 377, 1-(6-{4-[2-(2-chloro-phenyl)-2-hydroxy-acetyl]-piperazin-1-yl}-pyridin-3-yl)-3-(2-fluoro-phenyl)-urea]
≥ 50 | 118 to 120 | COc1ccc(C)cc1NC(=O)Nc1ccc(N2CCN(C(=O)C(O)c3ccccc3Cl)CC2)cc1 (centres unmarked) [Example 378, 1-(4-{4-[2-(2-chloro-phenyl)-2-hydroxy-acetyl]-piperazin-1-yl}-phenyl)-3-(2-methoxy-5-methyl-phenyl)-urea]
≥ 50 | 133 to 135 | O=C(Nc1ccc(N2CCN(C(=O)C(O)c3ccc(O)cc3Cl)CC2)nc1)Nc1ccccc1F (centres unmarked) [Example 379, 1-(6-{4-[2-(2-chloro-4-hydroxy-phenyl)-2-hydroxy-acetyl]-piperazin-1-yl}-pyridin-3-yl)-3-(2-fluoro-phenyl)-urea]
≥ 50 | 118 to 120 | COc1ccc(C)cc1NC(=O)Nc1ccc(N2CCN(C(=O)C(O)c3ccccc3Cl)CC2)nc1 (centres unmarked) [Example 380, 1-(6-{4-[2-(2-chloro-phenyl)-2-hydroxy-acetyl]-piperazin-1-yl}-pyridin-3-yl)-3-(2-methoxy-5-methyl-phenyl)-urea]
≥ 50 | 250 to 253 | O=C(Nc1ccc(N2CCN(C(=O)Nc3ccc(C(=O)O)cc3Cl)CC2)cc1)Nc1ccccc1F [Example 388, 3-chloro-4-[(4-{4-[3-(2-fluoro-phenyl)-ureido]-phenyl}-piperazine-1-carbonyl)-amino]-benzoic acid]
≥ 50 | 209 to 210 | COC(=O)Cc1ccc(OC(=O)N2CCN(c3ccc(NC(=O)Nc4cc(C)ccc4OC)cc3)CC2)c(Cl)c1 [Example 393, 4-{4-[3-(2-methoxy-5-methyl-phenyl)-ureido]-phenyl}-piperazine-1-carboxylic acid 2-chloro-4-methoxycarbonylmethyl-phenyl ester]
≥ 50 | 199 to 200 | COc1ccc(C)cc1NC(=O)Nc1ccc(N2CCN(C(=O)Oc3ccc(CC(=O)O)cc3Cl)CC2)cc1 [Example 394, 4-{4-[3-(2-methoxy-5-methyl-phenyl)-ureido]-phenyl}-piperazine-1-carboxylic acid 4-carboxymethyl-2-chloro-phenyl ester]
≥ 50 | 189 to 190 | COc1ccc(C)cc1NC(=O)Nc1ccc(N2CCN(C(=O)Oc3ccc(CCO)cc3Cl)CC2)cc1 [Example 395, 4-{4-[3-(2-methoxy-5-methyl-phenyl)-ureido]-phenyl}-piperazine-1-carboxylic acid 2-chloro-4-(2-hydroxy-ethyl)-phenyl ester]

More lines, now with the values behind:

Compound | inhibition at 0.1 µg/mL (mouse DGAT1) [%] | melting point [°C]
CCOc1ccc(F)cc1NC(=O)Nc1ccc(N2CCN(C(=O)Nc3ncccc3C)CC2)nc1 [Example 300, 4-{5-[3-(2-ethoxy-5-fluoro-phenyl)-ureido]-pyridin-2-yl}-piperazine-1-carboxylic acid (3-methyl-pyridin-2-yl)-amide] | ≥ 50 | 180 to 185
COc1ccc(C)cc1NC(=O)Nc1ccc(N2CCN(C(=O)Nc3ncccc3C)CC2)nc1 [Example 301, 4-{5-[3-(2-methoxy-5-methyl-phenyl)-ureido]-pyridin-2-yl}-piperazine-1-carboxylic acid (3-methyl-pyridin-2-yl)-amide] | ≥ 50 | 216 to 218
Cc1cccnc1NC(=O)N1CCN(c2ccc(NC(=O)Nc3ccccc3F)cn2)CC1 [Example 302, 4-{5-[3-(2-fluoro-phenyl)-ureido]-pyridin-2-yl}-piperazine-1-carboxylic acid (3-methyl-pyridin-2-yl)-amide] | ≥ 50 | 213 to 215
COc1cccc(NC(=O)Nc2ccc(N3CCN(C(=O)Nc4ncccc4C)CC3)cc2)c1 [Example 303, 4-{4-[3-(3-methoxy-phenyl)-ureido]-phenyl}-piperazine-1-carboxylic acid (3-methyl-pyridin-2-yl)-amide] | ≥ 50 | 191 to 193
CCOc1ccccc1NC(=O)Nc1ccc(N2CCN(C(=O)Nc3ncccc3C)CC2)cc1 [Example 304, 4-{4-[3-(2-ethoxy-phenyl)-ureido]-phenyl}-piperazine-1-carboxylic acid (3-methyl-pyridin-2-yl)-amide] | ≥ 50 | 110 to 112
CCOc1cccc(NC(=O)Nc2ccc(N3CCN(C(=O)Nc4ncccc4C)CC3)cc2)c1 [Example 305, 4-{4-[3-(3-ethoxy-phenyl)-ureido]-phenyl}-piperazine-1-carboxylic acid (3-methyl-pyridin-2-yl)-amide] | ≥ 50 | 171 to 173
COc1cc(NC(=O)Nc2ccc(N3CCN(C(=O)Nc4ncccc4C)CC3)cc2)cc(OC)c1 [Example 306, 4-{4-[3-(3,5-dimethoxy-phenyl)-ureido]-phenyl}-piperazine-1-carboxylic acid (3-methyl-pyridin-2-yl)-amide] | ≥ 50 | 188 to 190
CCOc1ccc(C)cc1NC(=O)Nc1ccc(N2CCN(C(=O)Nc3ncccc3C)CC2)nc1 [Example 307, 4-{5-[3-(2-ethoxy-5-methyl-phenyl)-ureido]-pyridin-2-yl}-piperazine-1-carboxylic acid (3-methyl-pyridin-2-yl)-amide] | ≥ 50 | 198 to 200
COc1ccc(Cl)cc1NC(=O)Nc1ccc(N2CCN(C(=O)Nc3ncccc3C)CC2)nc1 [Example 308, 4-{5-[3-(5-chloro-2-methoxy-phenyl)-ureido]-pyridin-2-yl}-piperazine-1-carboxylic acid (3-methyl-pyridin-2-yl)-amide] | ≥ 50 | 203 to 205
COc1ccccc1NC(=O)Nc1ccc(N2CCN(C(=O)Nc3ncccc3C)CC2)cc1 [Example 309, 4-{4-[3-(2-methoxy-phenyl)-ureido]-phenyl}-piperazine-1-carboxylic acid (3-methyl-pyridin-2-yl)-amide] | ≥ 50 | 207 to 209
COc1ccc(Cl)cc1NC(=O)Nc1ccc(N2CCN(C(=O)Nc3ncccc3C)CC2)cc1 [Example 310, 4-{4-[3-(5-chloro-2-methoxy-phenyl)-ureido]-phenyl}-piperazine-1-carboxylic acid (3-methyl-pyridin-2-yl)-amide] | ≥ 50 | 163 to 165
CCOc1ccc(C)cc1NC(=O)Nc1ccc(N2CCN(C(=O)Nc3ncccc3C)CC2)cc1 [Example 311, 4-{4-[3-(2-ethoxy-5-methyl-phenyl)-ureido]-phenyl}-piperazine-1-carboxylic acid (3-methyl-pyridin-2-yl)-amide] | ≥ 50 | 206 to 208
COc1ccc(C)cc1NC(=O)Nc1ccc(N2CCN(C(=O)Nc3ncccc3C)CC2)c(F)c1 [Example 312, 4-{2-fluoro-4-[3-(2-methoxy-5-methyl-phenyl)-ureido]-phenyl}-piperazine-1-carboxylic acid (3-methyl-pyridin-2-yl)-amide] | ≥ 50 | 188 to 190
COc1ccc(C)cc1NC(=O)Nc1ccc(N2CCN(C(=O)Nc3ncccc3C)CC2)c(C)c1 [Example 313, 4-{4-[3-(2-methoxy-5-methyl-phenyl)-ureido]-2-methyl-phenyl}-piperazine-1-carboxylic acid (3-methyl-pyridin-2-yl)-amide] | ≥ 50 | 144 to 146
COc1ccc(C)cc1NC(=O)Nc1ccc(C2=CCN(C(=O)Nc3ncccc3C)CC2)cc1 [Example 324, 4-{4-[3-(2-methoxy-5-methyl-phenyl)-ureido]-phenyl}-3,6-dihydro-2H-pyridine-1-carboxylic acid (3-methyl-pyridin-2-yl)-amide] | ≥ 50 | 195 to 198
CCOP(=O)(O)Cc1ccc(NC(=O)N2CCN(c3ccc(NC(=O)Nc4cc(C)ccc4OC)cc3)CC2)c(C)c1 [Example 391, {4-[(4-{4-[3-(2-methoxy-5-methyl-phenyl)-ureido]-phenyl}-piperazine-1-carbonyl)-amino]-3-methyl-benzyl}-phosphonic acid monoethyl ester] | ≥ 50 | 165 to 173
